Test results reported in paper PMC4467461, “Small-molecule activation of SERCA2a SUMOylation for the treatment of heart failure” (Nature Communications, 2015).

Tested on: TAC mice
Test: Dobutamine contractile response in TAC and sham mice
Assay type: in vivo
Settings: TAC versus sham mice, 3, 6, 10 ng/BW g
Procedure: TAC mice and sham control. n = 5 (TAC) and n = 3 (sham operated). LVIDd, LV internal diameter during diastole; LVIDs, LV internal diameter during systole; FS, fractional shortening; EF, ejection fraction. (e) SERCA2a protein levels were detected by Western blot analysis. 15 µg of tissue extracts was separated on 7.5% SDS-PAGE gels, transferred to nitrocellulose membrane and blotted with anti-SERCA2a antibody. Band intensity was quantified by Image J software. The amount of GAPDH was used as a normalization control. (f) Dobutamine was infused to test contractile response to β-agonist stimulation in TAC and sham operated animals.
LV pressure rise rate (+dP/dt max) was measured in response to different dose of dobutamine stimulation. Dose-dependent dobutamine response was blunted in TAC animals. n = 3 mice per each dose. Data are represented as mean ± SEM. * p < 0.05 versus baseline (Student’s t-test).

CC(CCc1ccc(O)cc1)NCCc1ccc(O)c(O)c1 (centres unmarked) [dobutamine]
contractile / chronotropic response (+dP/dt max) to dobutamine: significantly abrogated | contractile / chronotropic response (+dP/dt max) to dobutamine (listed as Dobutamine): blunted
